The supplement of paper PMC9663587

What was measured:
Dasatinib = compound: Cc1nc(Nc2ncc(C(=O)Nc3c(C)cccc3Cl)s2)cc(N2CCN(CCO)CC2)n1 [Dasatinib]
[1] = compound: CC(=O)c1c(C)c2cnc(Nc3ccc(N4CCNCC4)cn3)nc2n(C2CCCC2)c1=O
Vorinostat = compound: O=C(CCCCCCC(=O)Nc1ccccc1)NO [Vorinostat]
Taselisib/GDC0032 = compound: Cc1nc(-c2cn3c(n2)-c2ccc(-c4cnn(C(C)(C)C(N)=O)c4)cc2OCC3)n(C(C)C)n1 [Taselisib/GDC0032]
AZD2014 = compound: CNC(=O)c1cccc(-c2ccc3c(N4CCOC[C@@H]4C)nc(N4CCOC[C@@H]4C)nc3n2)c1 [AZD2014]
Volasertib/BI6727 = compound: CC[C@@H]1C(=O)N(C)c2cnc(Nc3ccc(C(=O)N[C@H]4CC[C@H](N5CCN(CC6CC6)CC5)CC4)cc3OC)nc2N1C(C)C [Volasertib/BI6727]
THZ531 [2] = compound: T1, CN(C)C/C=C/C(=O)Nc1ccc(C(=O)N2CCC[C@@H](Nc3ncc(Cl)c(-c4c[nH]c5ccccc45)n3)C2)cc1 [THZ531]
Neratinib/HKI272 [3] = compound: T2, CCOc1cc2ncc(C#N)c(Nc3ccc(OCc4ccccn4)c(Cl)c3)c2cc1NC(=O)/C=C/CN(C)C [Neratinib/HKI272]
BSJ-01-175 = compound: CN(C)C/C=C/C(=O)Nc1ccc(O[C@@H]2CCC[C@@H](Nc3ncc(Cl)c(-c4c[nH]c5ccccc45)n3)C2)cc1 [BSJ-01-175]
BSJ-03-123 [4] = compound: T3, CC(=O)c1c(C)c2cnc(Nc3ccc(N4CCN(CCOCCOCCOCCNC(=O)COc5cccc6c5C(=O)N(C5CCC(=O)NC5=O)C6=O)CC4)cn3)nc2n(C2CCCC2)c1=O [BSJ-03-123]
Doxorubicin = compound: COc1cccc2c1C(=O)c1c(O)c3c(c(O)c1C2=O)C[C@@](O)(C(=O)CO)C[C@@H]3O[C@H]1C[C@H](N)[C@H](O)[C@H](C)O1 [Doxorubicin]
[5] = compound: CC(=O)Nc1cccc(-n2c(=O)n(C3CC3)c(=O)c3c(Nc4ccc(I)cc4F)n(C)c(=O)c(C)c32)c1
INK128/MLN0128 = compound: CC(C)n1nc(-c2ccc3oc(N)nc3c2)c2c(N)ncnc21 [INK128/MLN0128]
Ceritinib/LDK378 = compound: Cc1cc(Nc2ncc(Cl)c(Nc3ccccc3S(=O)(=O)C(C)C)n2)c(OC(C)C)cc1C1CCNCC1 [Ceritinib/LDK378]
[6] = compound: CO[C@@H](C)Cn1c(=O)n(C)c2cnc3ccc(-c4cncc(C(C)(C)O)c4)cc3c21
YKL-5-124 = compound: C=CC(=O)Nc1ccc(C(=O)Nc2[nH]nc3c2CN(C(=O)N[C@H](CN(C)C)c2ccccc2)C3(C)C)cc1 [YKL-5-124]; assay: increase in dead-cell fraction, 72 h; higher = more death;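 note: breast cancer cell lines in 384-well plates, stained with Hoechst plus LIVE/DEAD far red dye and imaged, cells above an LDR intensity threshold counted dead, Hoechst-negative corpses included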
THZ1 = compound: CN(C)C/C=C/C(=O)Nc1ccc(C(=O)Nc2cccc(Nc3ncc(Cl)c(-c4c[nH]c5ccccc45)n3)c2)cc1 [THZ1]; assay: as above
THZ531 [7] = compound: T1, THZ531; assay: as above
Neratinib/HKI272 [8] = compound: T2, Neratinib/HKI272; assay: as above
BSJ-03-123 [9] = compound: T3, BSJ-03-123; assay: as above
[10] = compound: CCc1cnn2c(NCc3ccc[n+]([O-])c3)cc(N3CCCC[C@H]3CCO)nc12; assay: as above
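Throughout, for GR50, 72 h: breast cancer and non-malignant breast epithelial cell lines, Deep Dye Drop or Dye Drop imaging, nine half-log doses, GR normalized to time-zero plates and DMSO-only controls.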

In the case of SUM1315, the “GR50, 72 h” value (Dasatinib) is reported as 0.0191 µM, the “GR50, 72 h” value [1] is reported as 0.0923 µM and the “GR50, 72 h” value (Vorinostat) is reported as 1.76 µM. For the same cell line, the “GR50, 72 h” value (Taselisib/GDC0032) was 0.516 µM, the “GR50, 72 h” value (AZD2014) was 0.0012 µM and the “GR50, 72 h” value (Volasertib/BI6727) was 0.0095 µM. For the same cell line, the “GR50, 72 h” value (THZ531 [2]) was 0.388 µM, the “GR50, 72 h” value (Neratinib/HKI272 [3]) was 0.0922 µM and the “GR50, 72 h” value (BSJ-01-175) was 0.419 µM. The “GR50, 72 h” value (BSJ-03-123 [4]) was 2.05 µM, the “GR50, 72 h” value (Doxorubicin) was 0.0182 µM and the “GR50, 72 h” value [5] was 0.0211 µM. For the same cell line, the “GR50, 72 h” value (INK128/MLN0128) was 0.00659 µM, the “GR50, 72 h” value (Ceritinib/LDK378) was 0.669 µM and the “GR50, 72 h” value [6] was 0.00919 µM. The “increase in dead-cell fraction” value (YKL-5-124; 0.001 µM) was 0.0195, the “increase in dead-cell fraction” value (YKL-5-124; 0.003162 µM) was 0.0396 and the “increase in dead-cell fraction” value (YKL-5-124; 0.01 µM) was 0.0503. For the same cell line, the “increase in dead-cell fraction” value (YKL-5-124; 0.03162 µM) was 0.0215, the “increase in dead-cell fraction” value (YKL-5-124; 0.1 µM) was 0.0766 and the “increase in dead-cell fraction” value (YKL-5-124; 0.3162 µM) was 0.0731. The “increase in dead-cell fraction” value (YKL-5-124; 1 µM) was 0.171, the “increase in dead-cell fraction” value (YKL-5-124; 3.162 µM) was 0.134 and the “increase in dead-cell fraction” value (YKL-5-124; 10 µM) was 0.364. For the same cell line, the “increase in dead-cell fraction” value (THZ1; 0.0001 µM) was 0.0131, the “increase in dead-cell fraction” value (THZ1; 0.0003162 µM) was -0.0262 and the “increase in dead-cell fraction” value (THZ1; 0.001 µM) was -0.0208. The “increase in dead-cell fraction” value (THZ1; 0.003162 µM) was 0.0035, the “increase in dead-cell fraction” value (THZ1; 0.01 µM) was -0.0115 and the “increase in dead-cell fraction” value (THZ1; 0.03162 µM) was -0.0232. The “increase in dead-cell fraction” value (THZ1; 0.1 µM) was -0.0483, the “increase in dead-cell fraction” value (THZ1; 0.3162 µM) was 0.0421 and the “increase in dead-cell fraction” value (THZ1; 1 µM) was 0.61. The “increase in dead-cell fraction” value (THZ531 [7]; 0.0001 µM) was 0.0119, the “increase in dead-cell fraction” value (THZ531 [7]; 0.0003162 µM) was -0.0037 and the “increase in dead-cell fraction” value (THZ531 [7]; 0.001 µM) was -0.0061. The “increase in dead-cell fraction” value (THZ531 [7]; 0.003162 µM) was 0.0067, the “increase in dead-cell fraction” value (THZ531 [7]; 0.01 µM) was 0.001 and the “increase in dead-cell fraction” value (THZ531 [7]; 0.03162 µM) was -0.0178. For the same cell line, the “increase in dead-cell fraction” value (THZ531 [7]; 0.1 µM) was -0.0022, the “increase in dead-cell fraction” value (THZ531 [7]; 0.3162 µM) was 0.0155 and the “increase in dead-cell fraction” value (THZ531 [7]; 1 µM) was 0.204. The “increase in dead-cell fraction” value (Neratinib/HKI272 [8]; 0.0003162 µM) was 0.0036, the “increase in dead-cell fraction” value (Neratinib/HKI272 [8]; 0.001 µM) was 0.0058 and the “increase in dead-cell fraction” value (Neratinib/HKI272 [8]; 0.003162 µM) was 0.0067. The “increase in dead-cell fraction” value (Neratinib/HKI272 [8]; 0.01 µM) was 0.0047, the “increase in dead-cell fraction” value (Neratinib/HKI272 [8]; 0.03162 µM) was 0.0181 and the “increase in dead-cell fraction” value (Neratinib/HKI272 [8]; 0.1 µM) was 0.0402. For the same cell line, the “increase in dead-cell fraction” value (Neratinib/HKI272 [8]; 0.3162 µM) was 0.0578, the “increase in dead-cell fraction” value (Neratinib/HKI272 [8]; 1 µM) was 0.0857 and the “increase in dead-cell fraction” value (Neratinib/HKI272 [8]; 3.162 µM) was 0.0855. The “increase in dead-cell fraction” value (BSJ-03-123 [9]; 0.001 µM) was -0.0091, the “increase in dead-cell fraction” value (BSJ-03-123 [9]; 0.003162 µM) was 0.0246 and the “increase in dead-cell fraction” value (BSJ-03-123 [9]; 0.01 µM) was 0.0376. The “increase in dead-cell fraction” value (BSJ-03-123 [9]; 0.03162 µM) was 0.0297, the “increase in dead-cell fraction” value (BSJ-03-123 [9]; 0.1 µM) was 0.0105 and the “increase in dead-cell fraction” value (BSJ-03-123 [9]; 0.3162 µM) was -0.0013. For the same cell line, the “increase in dead-cell fraction” value (BSJ-03-123 [9]; 1 µM) was 0.033, the “increase in dead-cell fraction” value (BSJ-03-123 [9]; 3.162 µM) was 0.03 and the “increase in dead-cell fraction” value (BSJ-03-123 [9]; 10 µM) was 0.0923. For the same cell line, the “increase in dead-cell fraction” value ([10]; 0.0001 µM) was -0.0013, the “increase in dead-cell fraction” value ([10]; 0.0003162 µM) was -0.0006 and the “increase in dead-cell fraction” value ([10]; 0.001 µM) was 0.0062. For the same cell line, the “increase in dead-cell fraction” value ([10]; 0.003162 µM) was 0.0147, the “increase in dead-cell fraction” value ([10]; 0.01 µM) was 0.0232 and the “increase in dead-cell fraction” value ([10]; 0.03162 µM) was 0.578. For the same cell line, the “increase in dead-cell fraction” value ([10]; 0.1 µM) was 0.63, the “increase in dead-cell fraction” value ([10]; 0.3162 µM) was 0.64 and the “increase in dead-cell fraction” value ([10]; 1 µM) was 0.599.
